Literature values as cited in patent US4203975A, “Psychopharmacological peptides suitable for therapeutic administration” (Akzona Incorporated, priority 1977, dated 1980).

How the values were obtained:
[1] = prior art
rats = rats from which the hypophysis or the posterior lobe thereof has been removed

Molecule	pressor activity [1]	inhibition of the extinction of the conditioned flight response (rats)
NC(=O)CC[C@@H]1NC(=O)[C@H](Cc2ccccc2)NC(=O)[C@H](Cc2ccc(O)cc2)NC(=O)[C@@H](N)CSSC[C@@H](C(=O)N2CCC[C@H]2C(=O)N[C@@H](CCCN=C(N)N)C(=O)NCC(N)=O)NC(=O)[C@H](CC(N)=O)NC1=O [vasopressin]	extremely powerful pressor activity	–
(Lys)-vasopressin zinc tannate	–	capable of inhibiting the extinction of the conditioned flight response
